The results in this text go back to PMC2222910 (The Journal of General Physiology, 1999).

The structures appear in SMILES notation.

By EC50 is commonly meant the concentration that produces a half-maximal response. Read a low EC50 as greater potency.

For this experiment, the target named is T1, P2X2 purinoceptor (Rattus norvegicus, UniProt P49653).
T1 sequence (P49653 1-472): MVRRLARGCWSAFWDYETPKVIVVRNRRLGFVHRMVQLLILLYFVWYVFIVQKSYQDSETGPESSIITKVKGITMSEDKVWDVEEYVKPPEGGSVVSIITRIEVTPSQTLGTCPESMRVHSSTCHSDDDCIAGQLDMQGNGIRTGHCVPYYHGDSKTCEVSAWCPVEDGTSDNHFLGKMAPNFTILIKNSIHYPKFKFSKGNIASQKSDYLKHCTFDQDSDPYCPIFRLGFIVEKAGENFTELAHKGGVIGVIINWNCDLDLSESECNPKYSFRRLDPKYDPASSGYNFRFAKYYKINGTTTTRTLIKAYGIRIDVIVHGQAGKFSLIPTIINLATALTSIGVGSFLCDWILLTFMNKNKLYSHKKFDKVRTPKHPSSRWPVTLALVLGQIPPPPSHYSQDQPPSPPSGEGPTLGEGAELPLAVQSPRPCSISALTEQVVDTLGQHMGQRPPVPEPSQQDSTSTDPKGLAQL
As to the kind of experiment: single channel patch clamp of outside-out patches, Xenopus oocytes. It is filed as cell-based.

The compound `Nc1ncnc2c1ncn2[C@@H]1O[C@H](COP(=O)(O)OP(=O)(O)OP(=O)(O)O)[C@@H](O)[C@H]1O` [ATP] yielded an EC50 of 11.2 µM.
